From patent US20230124862A1, “BISMUTH THIOL COMPOUNDS AND COMPOSITIONS AND METHODS OF TREATING MICROBIAL CO-INFECTIONS” (Microbion Corporation, priority 2020, published 2023)
Values joined by “and” are separate entries in the source; they are usually repeats but may differ in a detail not shown here. Equal entries are not always repeated. Where two headings read alike, the source gives them in different places.

Assay type: in vivo, beagle dogs
Experimental: Once adequately conditioned to the restraint device and face-masks, the animals are individually exposed to the test article aerosols. Animals receive a single face-mask inhalation exposure in a ramp study design to test article aerosols for up to 60 min. Animal observations during and post exposure determine the tolerance of inhaled BisEDT aerosols.
Blood Collections and Bioanalytical Analysis: Blood are collected for pharmacokinetic (PK) analysis prior to exposure, then at 4 hr (±5 min) post exposure, and again on Day 1, Day 2, Day 7 (pre- and 4 hr (±5 min)-post exposure), Day 8, Day 9, Day 10, Day 11, Day 12, Day 13, and Day 14. A total of 0.25 mL is collected at each timepoint. No PK blood is collected from the vehicle control (Group 1) animals; only animals exposed to BisEDT have blood collected for PK analysis. Collected samples are flash frozen without processing for shipment to Medpace for bioanalytical analysis. Additional blood is collected from all animals in all groups for hematology (1 mL) and clinical chemistry (1 mL) at baseline, Day 7 (pre-exposure), and again at euthanasia. Blood (2-2 mL) is collected from all animals at necropsy for coagulation analysis (d-Dimer, fibrinogen, PT, and PTT).
For clinical chemistry analyses, whole blood (1 mL) is placed into serum separator or clot tube and […] by centrifugation at a minimum of 1300 g at 2 to 8° C. for 10 (±1) min. Plasma samples are stored at −70 to −90° C. until analysis.
Clinical chemistry samples are analyzed on a Hitachi Modular Analytics Clinical Chemistry System (Roche Diagnostics, Indianapolis, Ind.).

With C1C[S][Bi]([S]CC[S][Bi]2[S]CC[S]2)[S]1 [BisEDT, Bismuth-1,2-ethanedithiol] as the compound, how does the GGT (dog 4002 Female) read?
The GGT was 3 IU/L.

What about the GLOB (dog 4002 Female) of the same compound?
The GLOB was 2.1 g/dL and 2.0 g/dL.

And the GLUC (dog 4002 Female)?
The GLUC was 106 mg/dL and 79 mg/dL.

What about the K (dog 4002 Female) of the same compound?
The K was 5.3 mmo/L.

And the Na (dog 4002 Female)?
The Na was 153 mmo/L and 149 mmo/L.

And the TBIL (dog 4002 Female)?
The TBIL was 0.15 mg/dL.

What about the TP (dog 4002 Female) of the same compound?
The TP was 5.6 g/dL and 5.5 g/dL.

And the TRIG (dog 4002 Female)?
The TRIG was 34 mg/dL and 41 mg/dL.

And the AGR (dog 4003 Male)?
Its AGR is 1.8 and 1.6.

What about the ALB (dog 4003 Male) of the same compound?
Its ALB is 3.5 g/dL and 3.3 g/dL.

What about the ALPK (dog 4003 Male) of the same compound?
Its ALPK is 146 IU/L and 129 IU/L.

What about the ALT (dog 4003 Male) of the same compound?
Its ALT is 40 IU/L and 23 IU/L.

What about the AST (dog 4003 Male) of the same compound?
The AST was 30 IU/L and 33 IU/L.

And the BUN (dog 4003 Male)?
Its BUN is 16 mg/dL and 15 mg/dL.

What about the CA2 (dog 4003 Male) of the same compound?
Its CA2 is 11.2 mg/dL and 11.0 mg/dL.

What about the CHOL (dog 4003 Male) of the same compound?
The CHOL was 152 mg/dL and 176 mg/dL.

And the CREA (dog 4003 Male)?
The CREA was 0.6 mg/dL and 0.7 mg/dL.

What about the Cl (dog 4003 Male) of the same compound?
Its Cl is 117 mmo/L and 112 mmo/L.

What about the GGT (dog 4003 Male) of the same compound?
Its GGT is 3 IU/L.

What about the GLOB (dog 4003 Male) of the same compound?
The GLOB was 1.9 g/dL and 2.1 g/dL.

And the GLUC (dog 4003 Male)?
Its GLUC is 109 mg/dL and 81 mg/dL.

What about the K (dog 4003 Male) of the same compound?
Its K is 4.9 mmo/L.

And the Na (dog 4003 Male)?
Its Na is 149 mmo/L and 147 mmo/L.

And the TBIL (dog 4003 Male)?
The TBIL was 0.15 mg/dL.

And the TP (dog 4003 Male)?
Its TP is 5.4 g/dL.

And the TRIG (dog 4003 Male)?
The TRIG was 55 mg/dL and 53 mg/dL.

And the AGR (dog 4004 Female)?
The AGR was 2.0 and 1.7 and 1.9.

And the ALB (dog 4004 Female)?
Its ALB is 3.4 g/dL and 3.3 g/dL.

And the ALPK (dog 4004 Female)?
Its ALPK is 103 IU/L and 93 IU/L and 95 IU/L.

And the ALT (dog 4004 Female)?
The ALT was 28 IU/L and 25 IU/L and 24 IU/L.

And the AST (dog 4004 Female)?
Its AST is 33 IU/L and 38 IU/L and 31 IU/L.

What about the BUN (dog 4004 Female) of the same compound?
Its BUN is 13 mg/dL.

And the CA2 (dog 4004 Female)?
Its CA2 is 10.8 mg/dL and 10.6 mg/dL.

And the CHOL (dog 4004 Female)?
Its CHOL is 125 mg/dL and 124 mg/dL and 112 mg/dL.

And the CREA (dog 4004 Female)?
The CREA was 0.6 mg/dL.

What about the Cl (dog 4004 Female) of the same compound?
The Cl was 119 mmo/L and 115 mmo/L and 114 mmo/L.

And the GGT (dog 4004 Female)?
The GGT was 3 IU/L.

And the GLOB (dog 4004 Female)?
Its GLOB is 1.7 g/dL and 1.9 g/dL.

What about the GLUC (dog 4004 Female) of the same compound?
The GLUC was 102 mg/dL and 70 mg/dL and 96 mg/dL.

And the K (dog 4004 Female)?
The K was 4.6 mmo/L and 5.1 mmo/L and 4.3 mmo/L.

And the Na (dog 4004 Female)?
The Na was 153 mmo/L and 148 mmo/L and 146 mmo/L.

What about the TBIL (dog 4004 Female) of the same compound?
Its TBIL is 0.15 mg/dL.

What about the TP (dog 4004 Female) of the same compound?
The TP was 5.1 g/dL and 5.2 g/dL and 5.0 g/dL.

And the TRIG (dog 4004 Female)?
Its TRIG is 53 mg/dL and 49 mg/dL and 44 mg/dL.

And the AGR (dogs, Grp 2 Avg)?
The AGR was 1.8 and 2.2 and 2.1.

And the ALB (dogs, Grp 2 Avg)?
Its ALB is 3.3 g/dL and 3.5 g/dL and 3.6 g/dL.

What about the ALPK (dogs, Grp 2 Avg) of the same compound?
Its ALPK is 186 IU/L and 126 IU/L and 116 IU/L.

What about the ALT (dogs, Grp 2 Avg) of the same compound?
Its ALT is 20 IU/L and 26 IU/L and 25 IU/L.

And the AST (dogs, Grp 2 Avg)?
The AST was 42 IU/L and 39 IU/L and 37 IU/L.

And the BUN (dogs, Grp 2 Avg)?
The BUN was 13 mg/dL and 15 mg/dL.

What about the CA2 (dogs, Grp 2 Avg) of the same compound?
Its CA2 is 10.9 mg/dL and 10.8 mg/dL.

And the CHOL (dogs, Grp 2 Avg)?
The CHOL was 153 mg/dL and 145 mg/dL and 133 mg/dL.

And the CREA (dogs, Grp 2 Avg)?
Its CREA is 0.7 mg/dL and 0.6 mg/dL.

And the Cl (dogs, Grp 2 Avg)?
Its Cl is 110 mmo/L and 114 mmo/L and 111 mmo/L.

And the GGT (dogs, Grp 2 Avg)?
The GGT was 3 IU/L.

And the GLOB (dogs, Grp 2 Avg)?
The GLOB was 1.8 g/dL and 1.7 g/dL.

What about the GLUC (dogs, Grp 2 Avg) of the same compound?
The GLUC was 93 mg/dL and 98 mg/dL and 96 mg/dL.

And the K (dogs, Grp 2 Avg)?
Its K is 4.8 mmo/L and 5.1 mmo/L and 4.7 mmo/L.

What about the Na (dogs, Grp 2 Avg) of the same compound?
Its Na is 149 mmo/L and 147 mmo/L and 148 mmo/L.

What about the TBIL (dogs, Grp 2 Avg) of the same compound?
The TBIL was 0.15 mg/dL.

And the TP (dogs, Grp 2 Avg)?
The TP was 5.1 g/dL and 5.2 g/dL and 5.4 g/dL.

And the TRIG (dogs, Grp 2 Avg)?
Its TRIG is 52 mg/dL and 60 mg/dL and 47 mg/dL.

What about the AGR (dogs, Grp 3 Avg) of the same compound?
Its AGR is 2.2 and 1.9 and 2.4.

And the ALB (dogs, Grp 3 Avg)?
Its ALB is 3.4 g/dL and 3.5 g/dL and 3.6 g/dL.

What about the ALPK (dogs, Grp 3 Avg) of the same compound?
Its ALPK is 153 IU/L and 113 IU/L and 149 IU/L.

What about the ALT (dogs, Grp 3 Avg) of the same compound?
Its ALT is 27 IU/L and 22 IU/L and 21 IU/L.

And the AST (dogs, Grp 3 Avg)?
The AST was 30 IU/L and 32 IU/L.

And the CA2 (dogs, Grp 3 Avg)?
Its CA2 is 11.0 mg/dL and 10.7 mg/dL and 10.2 mg/dL.

And the CHOL (dogs, Grp 3 Avg)?
Its CHOL is 113 mg/dL and 143 mg/dL and 126 mg/dL.

And the CREA (dogs, Grp 3 Avg)?
Its CREA is 0.6 mg/dL and 1.0 mg/dL.

What about the Cl (dogs, Grp 3 Avg) of the same compound?
Its Cl is 112 mmo/L and 110 mmo/L.

What about the GGT (dogs, Grp 3 Avg) of the same compound?
The GGT was 3 IU/L.

And the GLOB (dogs, Grp 3 Avg)?
The GLOB was 1.6 g/dL and 1.9 g/dL and 1.5 g/dL.

And the GLUC (dogs, Grp 3 Avg)?
Its GLUC is 106 mg/dL and 89 mg/dL and 58 mg/dL.

And the K (dogs, Grp 3 Avg)?
Its K is 5.1 mmo/L and 5.2 mmo/L and 5.9 mmo/L.

What about the Na (dogs, Grp 3 Avg) of the same compound?
Its Na is 148 mmo/L and 146 mmo/L and 149 mmo/L.

What about the TBIL (dogs, Grp 3 Avg) of the same compound?
The TBIL was 0.15 mg/dL.

And the TP (dogs, Grp 3 Avg)?
The TP was 4.9 g/dL and 5.3 g/dL and 5.1 g/dL.

What about the TRIG (dogs, Grp 3 Avg) of the same compound?
Its TRIG is 30 mg/dL and 39 mg/dL and 55 mg/dL.

What about the AGR (dogs, Grp 4 Avg) of the same compound?
Its AGR is 2.2 and 1.8 and 1.9.

And the ALB (dogs, Grp 4 Avg)?
Its ALB is 3.5 g/dL and 3.4 g/dL and 3.3 g/dL.

What about the ALPK (dogs, Grp 4 Avg) of the same compound?
The ALPK was 103 IU/L and 104 IU/L and 107 IU/L.

What about the ALT (dogs, Grp 4 Avg) of the same compound?
Its ALT is 28 IU/L and 26 IU/L.

And the AST (dogs, Grp 4 Avg)?
The AST was 33 IU/L and 39 IU/L.

What about the BUN (dogs, Grp 4 Avg) of the same compound?
The BUN was 12 mg/dL and 13 mg/dL.

What about the CA2 (dogs, Grp 4 Avg) of the same compound?
Its CA2 is 10.8 mg/dL and 10.7 mg/dL and 10.5 mg/dL.

What about the CHOL (dogs, Grp 4 Avg) of the same compound?
The CHOL was 139 mg/dL and 136 mg/dL and 112 mg/dL.

And the CREA (dogs, Grp 4 Avg)?
Its CREA is 0.7 mg/dL and 0.6 mg/dL.

And the Cl (dogs, Grp 4 Avg)?
Its Cl is 120 mmo/L and 116 mmo/L and 114 mmo/L.

And the GGT (dogs, Grp 4 Avg)?
The GGT was 3 IU/L.

And the GLOB (dogs, Grp 4 Avg)?
Its GLOB is 1.7 g/dL and 1.9 g/dL.

And the GLUC (dogs, Grp 4 Avg)?
The GLUC was 102 mg/dL and 76 mg/dL and 91 mg/dL.

What about the K (dogs, Grp 4 Avg) of the same compound?
The K was 4.7 mmo/L and 5.0 mmo/L and 4.5 mmo/L.

And the Na (dogs, Grp 4 Avg)?
The Na was 153 mmo/L and 148 mmo/L and 146 mmo/L.

What about the TBIL (dogs, Grp 4 Avg) of the same compound?
Its TBIL is 0.15 mg/dL.

And the TP (dogs, Grp 4 Avg)?
The TP was 5.2 g/dL and 5.3 g/dL and 5.0 g/dL.

What about the TRIG (dogs, Grp 4 Avg) of the same compound?
Its TRIG is 51 mg/dL and 48 mg/dL and 42 mg/dL.
